From PubChem BioAssay AID248 (DTP/NCI, 2004)
Where “and” joins values, the source holds several entries; their conditions need not be identical. Equal entries are not always repeated. Inconclusive results and toxic doses are left out. No stated cut-off is given here; in the data, active means T/C of 150% or more; inactive means T/C below 125%. Peptide text beside a SMILES is read from it. * marks the point of attachment. Trt = c1ccc(C(c2ccccc2)(c2ccccc2)*)cc1; OtBu = CC(C)(C)O*

System: L1210 leukemia ip in BDF1 mice, survival T/C
Experiment: NCI In Vivo Anticancer Drug Screen. Data for tumor model L1210 Leukemia (intraperitoneal) in B6D2F1 (BDF1) mice
Conditions: endpoint: mean survival time, higher = longer survival
How it was run: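 Read-out is survival time, reported as the treated-group measurement over the vehicle-control measurement.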

[1] = dose: 400.0 mg/kg/injection, schedule: Q01DX001 (ip), vehicle: carboxymethylcellulose (CMC)
[2] = dose: 400.0 mg/kg/injection, schedule: Q01DX001 (ip), vehicle: saline
[3] = dose: 100.0 mg/kg/injection, schedule: Q01DX009 (ip), vehicle: saline with Tween-80
[4] = dose: 100.0 mg/kg/injection, schedule: Q04DX003 (ip), vehicle: Klucel (hydroxypropylcellulose) (HPC)
[5] = dose: 100.0 mg/kg/injection, schedule: Q04DX003 (ip), vehicle: saline
[6] = dose: 200.0 mg/kg/injection, schedule: Q01DX009 (ip), vehicle: saline with Tween-80
[7] = dose: 200.0 mg/kg/injection, schedule: Q04DX003 (ip), vehicle: Klucel (hydroxypropylcellulose) (HPC)
[8] = dose: 400.0 mg/kg/injection, schedule: Q04DX003 (ip), vehicle: Klucel (hydroxypropylcellulose) (HPC)
[9] = dose: 100.0 mg/kg/injection, schedule: Q01DX001 (ip), vehicle: saline
[10] = dose: 200.0 mg/kg/injection, schedule: Q01DX001 (ip), vehicle: saline
[11] = dose: 100.0 mg/kg/injection, schedule: Q04DX003 (ip), vehicle: saline with Tween-80
[12] = dose: 200.0 mg/kg/injection, schedule: Q04DX003 (ip), vehicle: saline with Tween-80
[13] = dose: 400.0 mg/kg/injection, schedule: Q04DX003 (ip), vehicle: saline with Tween-80
[14] = dose: 25.0 mg/kg/injection, schedule: Q01DX009 (ip), vehicle: saline
[15] = dose: 50.0 mg/kg/injection, schedule: Q01DX009 (ip), vehicle: saline
[16] = dose: 100.0 mg/kg/injection, schedule: Q01DX009 (ip), vehicle: saline
[17] = dose: 100.0 mg/kg/injection, schedule: Q01DX009 (ip), vehicle: Klucel (hydroxypropylcellulose) (HPC)
[18] = dose: 200.0 mg/kg/injection, schedule: Q01DX009 (ip), vehicle: Klucel (hydroxypropylcellulose) (HPC)
[19] = dose: 100.0 mg/kg/injection, schedule: Q04DX002 (ip), vehicle: Klucel (hydroxypropylcellulose) (HPC)
[20] = dose: 200.0 mg/kg/injection, schedule: Q04DX002 (ip), vehicle: Klucel (hydroxypropylcellulose) (HPC)
[21] = dose: 400.0 mg/kg/injection, schedule: Q04DX002 (ip), vehicle: Klucel (hydroxypropylcellulose) (HPC)
[22] = dose: 25.0 mg/kg/injection, schedule: Q04DX002 (ip), vehicle: saline
[23] = dose: 50.0 mg/kg/injection, schedule: Q01DX001 (ip), vehicle: saline
[24] = dose: 50.0 mg/kg/injection, schedule: Q04DX002 (ip), vehicle: saline
[25] = dose: 400.0 mg/kg/injection, schedule: Q01DX009 (ip), vehicle: saline with Tween-80
[26] = dose: 50.0 mg/kg/injection, schedule: Q04DX003 (ip), vehicle: saline with Tween-80

Measured: T/C

CC(C)(C)OC(=O)CNC(=O)C(Cc1ccccc1)NC(=O)C(N)CSC(c1ccccc1)(c1ccccc1)c1ccccc1 (stereo not drawn) (H-Cys(Trt)-Phe-Gly-OtBu; configuration not given here)
inactive: dose: 264.0 mg/kg/injection, schedule: Q01DX001 (ip), vehicle: carboxymethylcellulose (CMC) 104 % of control | dose: 264.0 mg/kg/injection, schedule: Q01DX001 (ip), vehicle: saline 110 % of control | [1] 107 % of control | [2] 115 % of control

CN(C)CC1CCCCC1=O (stereo unspecified)
inactive: [3] 97 % of control | [4] 102 % of control | [5] 103 % of control | [6] 96 % of control | [7] 102 % of control | dose: 200.0 mg/kg/injection, schedule: Q04DX003 (ip), vehicle: saline 110 % of control | [8] 97 % of control | dose: 400.0 mg/kg/injection, schedule: Q04DX003 (ip), vehicle: saline 103 % of control

CC1(c2ccncc2)OCCO1
inactive: [9] 97 % of control | [10] 101 % of control

CC(C)(C(O)c1ccccc1)[N+](=O)[O-] (stereo unspecified)
inactive: [11] 101 % of control | [12] 97 % of control | [13] 101 % of control

COc1cc(/C=N/NC(=O)C[n+]2ccccc2)cc(OC)c1
inactive: [14] 119 % of control | [15] 103 % of control | [16] 116 % of control | [5] 96 % of control

COc1ccc(C(=O)CC(C)=O)c(OCc2ccccc2)c1OC
inactive: [9] 101 % of control | [10] 98 % of control | [2] 104 % of control

O=[N+]([O-])c1cccc(Oc2ncccc2[N+](=O)[O-])c1
inactive: [17] 95 % of control | dose: 100.0 mg/kg/injection, schedule: Q04DX003 (ip), vehicle: other 105 % of control | [18] 102 % of control | dose: 200.0 mg/kg/injection, schedule: Q04DX003 (ip), vehicle: other 103 % of control | dose: 400.0 mg/kg/injection, schedule: Q01DX009 (ip), vehicle: Klucel (hydroxypropylcellulose) (HPC) 94 % of control | dose: 400.0 mg/kg/injection, schedule: Q04DX003 (ip), vehicle: other 100 % of control

CCc1ccc(N=Nc2c(F)c(F)c(N(C)C)c(F)c2F)cc1
inactive: dose: 100.0 mg/kg/injection, schedule: Q01DX001 (ip), vehicle: carboxymethylcellulose (CMC) 102 % of control | dose: 200.0 mg/kg/injection, schedule: Q01DX001 (ip), vehicle: carboxymethylcellulose (CMC) 100 % of control | [1] 100 % of control

N#Cc1cccn1-c1cccc2c(-n3cccc3C#N)cccc12
inactive: dose: 25.0 mg/kg/injection, schedule: Q04DX002 (ip), vehicle: Klucel (hydroxypropylcellulose) (HPC) 101 % of control | dose: 50.0 mg/kg/injection, schedule: Q04DX002 (ip), vehicle: Klucel (hydroxypropylcellulose) (HPC) 97 % of control | [19] 101 % of control

COc1ccc2c(CSc3ncnc4nc[nH]c34)cc(=O)oc2c1
inactive: [20] 94 % of control | [21] 94 % of control

CCc1cccc[n+]1Cc1ccccc1
inactive: [15] 90 % of control

C[CH2][Ge]1([CH2]C)[CH2]CC2(CCN(CCCN(C)C)C2)C[CH2]1
inactive: dose: 4.0 mg/kg/injection, schedule: Q01DX009 (ip), vehicle: saline 95 % of control | dose: 8.0 mg/kg/injection, schedule: Q01DX009 (ip), vehicle: saline 104 % of control | dose: 16.0 mg/kg/injection, schedule: Q01DX009 (ip), vehicle: saline 102 % of control | dose: 25.0 mg/kg/injection, schedule: Q01DX001 (ip), vehicle: saline 92 % of control | [14] 104 % of control and 107 % of control | [22] 106 % of control and 111 % of control | dose: 25.0 mg/kg/injection, schedule: Q04DX003 (ip), vehicle: saline 95 % of control | dose: 32.0 mg/kg/injection, schedule: Q01DX009 (ip), vehicle: saline 104 % of control | [23] 96 % of control | [15] 98 % of control and 104 % of control | [24] 98 % of control and 109 % of control | dose: 50.0 mg/kg/injection, schedule: Q04DX003 (ip), vehicle: saline 91 % of control | dose: 64.0 mg/kg/injection, schedule: Q01DX009 (ip), vehicle: saline 104 % of control | [9] 110 % of control | [16] 88 % of control and 91 % of control and 92 % of control | [5] 95 % of control

C(CC1CCNCC1)CC1CCNCC1
inactive: dose: 10.0 mg/kg/injection, schedule: Q01DX Z (ip), vehicle: saline 96 % of control | dose: 30.0 mg/kg/injection, schedule: Q01DX Z (ip), vehicle: saline 96 % of control

Cc1ccc([N+](=O)[O-])cc1NC(=O)N(CC(O)c1ccccc1)C1CCCCC1 (stereo unspecified)
inactive: [19] 90 % of control | [20] 97 % of control | [21] 95 % of control

NC(CCl)=NC1CCCCC1
inactive: [22] 106 % of control | [24] 100 % of control | dose: 100.0 mg/kg/injection, schedule: Q04DX002 (ip), vehicle: saline 110 % of control and 120 % of control

Cc1ccc(C(=O)/C=C/c2cccc3ccccc23)cc1
inactive: [3] 102 % of control | dose: 100.0 mg/kg/injection, schedule: Q04DX002 (ip), vehicle: saline with Tween-80 97 % of control | [6] 96 % of control | dose: 200.0 mg/kg/injection, schedule: Q04DX002 (ip), vehicle: saline with Tween-80 97 % of control | [25] 96 % of control | dose: 400.0 mg/kg/injection, schedule: Q04DX002 (ip), vehicle: saline with Tween-80 94 % of control

COc1ccc(/C(=N/Nc2ccccc2)C(C)C(O)(C(F)(F)F)C(F)(F)F)cc1 (stereo unspecified)
inactive: dose: 50.0 mg/kg/injection, schedule: Q01DX009 (ip), vehicle: Klucel (hydroxypropylcellulose) (HPC) 91 % of control | [17] 92 % of control | [4] 98 % of control | [18] 89 % of control | [7] 90 % of control

Cc1ccc(C(=O)c2ccc(Cl)cc2)cc1
inactive: [23] 90 % of control | [9] 98 % of control | [10] 102 % of control | [2] 96 % of control

CCC(C)C1(C)OC1C(=O)OC (stereo unspecified)
inactive: [3] 93 % of control | [11] 100 % of control | [6] 86 % of control | [12] 101 % of control | [13] 97 % of control

O=C1C2CCN(CC2)C1CNC1(c2ccccc2)CCCCC1 (stereo unspecified)
inactive: dose: 50.0 mg/kg/injection, schedule: Q01DX001 (ip), vehicle: Klucel (hydroxypropylcellulose) (HPC) 98 % of control | dose: 100.0 mg/kg/injection, schedule: Q01DX001 (ip), vehicle: Klucel (hydroxypropylcellulose) (HPC) 92 % of control | dose: 200.0 mg/kg/injection, schedule: Q01DX001 (ip), vehicle: Klucel (hydroxypropylcellulose) (HPC) 92 % of control

S=C(S)NNc1ccccc1
inactive: dose: 25.0 mg/kg/injection, schedule: Q04DX003 (ip), vehicle: saline with Tween-80 104 % of control | dose: 50.0 mg/kg/injection, schedule: Q01DX009 (ip), vehicle: saline with Tween-80 86 % of control | [26] 109 % of control | [3] 86 % of control | [11] 109 % of control

COc1cc2c(cc1OCc1ccccc1)C(c1cc(OC)c(OC)c(OC)c1)=C1C(=O)OCC1C2 (stereo unspecified)
inactive: [9] 98 % of control | [10] 97 % of control | [2] 97 % of control

O=C(Cc1ccccc1)Nc1ccc(Nc2ccccc2)cc1
inactive: [20] 100 % of control | [21] 95 % of control

CCCCCCCCCCCCC/C=C/CC(CC(=O)O)C(=O)Nc1cccc2c[n+](CC(=O)c3ccc(NC(C)=O)cc3)ccc12 (stereo unspecified)
inactive: [4] 111 % of control | [7] 101 % of control | [8] 105 % of control

OC(Cc1cnc2ccccc2n1)C(Cl)(Cl)Cl (stereo unspecified)
inactive: [3] 102 % of control | [4] 90 % of control | [6] 97 % of control | [7] 95 % of control | [25] 94 % of control | [8] 108 % of control

CC(=O)Nc1ccc(NC(C)=O)cc1
inactive: [11] 95 % of control | [12] 91 % of control | [13] 95 % of control

COc1cccc(C=Nc2ccc(N(C)C)cc2)c1O.COc1cccc(C=Nc2ccc(N(C)C)cc2)c1O.[Co]
inactive: [26] 88 % of control | [11] 88 % of control | [12] 98 % of control
